What was measured:
[1] = system: phosphorylated acetyl-CoA carboxylase (ACC); assay: Western blotting of phosphorylated ACC in BT-474 cells; format: cell-based, human; conditions: Example 7, two hours, antimycin 1-0.01 nmol/L, oligomycin 100-1 ng/mL, 2,4-dinitrophenol 300-3 µmol/L
Protocol: Human HER2-expressing human breast cancer cell line BT-474 (purchased from American Tissue Culture Collection (ATCC)) was seeded into a 24-multiwell plate (BT-474: 1.2 x 10^5 cells/well) and cultured overnight in a carbon dioxide gas incubator (5% CO2, 37°C). As an energy metabolism inhibitor having a mechanism that differed from that of rotenone, mitochondrial respiratory chain complex III-inhibiting compound antimycin (Wako Pure Chemical Industries) was added to final concentrations of 1, 0.3, 0.1, 0.03 and 0.01 nmol/L while continuing culture. Using another plate, mitochondrial respiratory chain complex V-inhibiting compound oligomycin (Wako Pure Chemical Industries) was added to final concentrations of 100, 30, 10, 3 and 1 ng/mL while continuing culture. In addition, 2,4-dinitrophenol was added to 300, 100, 30, 10 and 3 µmol/L while continuing culture. Two hours after the addition of the agent, the broth was removed and the cells were lysed with an SDS sample buffer (200 µL). Then, this cell lysate was used to perform western blotting analysis. Specifically, this cell lysate (8 µL) was separated by an SDS-PAGE method (gel concentration: 7.5-15%) (Analytical Biochemistry, No. 166, pp. 368-379, 1987) and transferred onto a nitrocellulose membrane (BioRad). Then, an antibody specific to phosphorylated HER2 (Cell signaling technology, Code# 2244), pACC antibody specific to phosphorylated acetyl-CoA carboxylase (ACC) (Cell signaling technology, Code# 3661) and anti-phosphorylated S6K antibody specific to phosphorylated S6 kinase (S6K) (Cell signaling technology, Code# 9209) were used to detect the antibody by chemiluminescent detection with an ECL system (Amersham) to quantify an amount of phosphorylated protein with LAS-1000 plus image analysis device (FUJIFILM).

[2] = system: A549 non-small cell lung cancer cell; assay: Viable cell count using Cell Counting Kit-F; format: cell-based, human; conditions: HER2-expressing cancer, five days of culture
Protocol: (§1) BT-474 breast cancer cell, MDA-MB-453 breast cancer cell, A549 non-small cell lung cancer cell and LNCaP prostate cancer cell were used as human HER2-expressing cells while MDA-MB-231 breast cancer cell and A498 kidney cancer cell (all purchased from ATCC) were used as HER2-nonexpressing cells. Each of the cells used had been seeded into a 96-plate at 500cells/150 µL/well and cultured overnight. Each of the compounds, i.e., antimycin (final concentrations: 1, 0.1, 0.01 and 0.001 µmol/L), 2,4-dinitrophenol (final concentrations: 0.6, 0.2, 0.06 and 0.02 mmol/L), metformin (final concentrations: 25, 5, 1 and 0.2 mmol/L) and AICAR (final concentrations: 25, 5, 1 and 0.2 mmol/L) was diluted with a medium and added for 50 µL/well at a time to the final concentrations mentioned above. Following five days of culture at 37°C in 5% CO2, the cells were counted using Cell Counting Kit-F (Dojindo Laboratories).
(§2) Viable cell count using Cell Counting Kit-F was carried out by the following method according to the attached instruction. The supernatant was removed from the 96-well plate after five days of culture. Cell Counting Kit-F diluted 1000-fold with an RPMI medium (phenol red-free, serum-free) was added for 100 µL/well at a time. After 30 minutes of reaction at room temperature, fluorescence (excitation wavelength; 480 nm, fluorescent wavelength; 530 nm) was determined with a fluorescent plate reader.
(§3) From the determination results, percentage of the fluorescence level in the wells added with the compound was determined assuming that the fluorescence level in the wells without the addition of the compound (control) is 100%, and the remaining cellular quantity was determined in % with respect to that of the control.

A498 kidney cancer cell = assay: Viable cell count using Cell Counting Kit-F; format: cell-based; conditions: A498; HER2-nonexpressing cancer; five days of culture
Protocol: as §1, §2, §3
(§4) BT-474 breast cancer cell, MDA-MB-453 breast cancer cell and LNCaP prostate cancer cell were used as human HER2-expressing cells while MDA-MB-231 breast cancer cell and A498 kidney cancer cell (all purchased from ATCC) were used as HER2-nonexpressing cells. Each of the cells used had been seeded into a 96-well plate at 500 cells/150 µL/well and cultured overnight. Troglitazone (final concentrations: 25, 6.25 and 1.56 µmol/L) was diluted with a medium, and added for 50 µL/well at a time to the final concentrations mentioned above. Following five days of culture at 37°C in 5% CO2, the cells were counted using Cell Counting Kit-F (Dojindo Laboratories).
as §3, with “troglitazone” for “the compound”

[3] = system: MDA-MB-231 breast cancer cell; assay: Viable cell count using Cell Counting Kit-F; format: cell-based; conditions: MB231; HER2-nonexpressing cancer; five days of culture
Protocol: as §1, §2, §3, §4
as §3, with “troglitazone” for “the compound”

Molecule: O=[N+]([O-])c1ccc(O)c([N+](=O)[O-])c1 [2,4-dinitrophenol]
- phosphorylation of ACC [1]: increased dose-dependently
- minimum concentrations for inhibiting cell proliferation for 50% or more [2]: <0.02 mmol/L
- minimum concentrations for inhibiting cell proliferation for 50% or more (A498 kidney cancer cell): 0.2 mmol/L
- minimum concentrations for inhibiting cell proliferation for 50% or more [3]: 0.2 mmol/L

Molecule: antimycin
- phosphorylation of ACC [1]: increased dose-dependently
- minimum concentrations for inhibiting cell proliferation for 50% or more [2]: 1e-05 mmol/L
- minimum concentrations for inhibiting cell proliferation for 50% or more (A498 kidney cancer cell): >0.0001 mmol/L
- minimum concentrations for inhibiting cell proliferation for 50% or more [3]: 1e-05 mmol/L

— patent publication EP1902732A1, “PROPHYLACTIC/THERAPEUTIC AGENT FOR HER2-EXPRESSING CANCER” (Takeda Pharmaceutical Company Limited, priority 2005, dated 2006)
